{"source": "patent US7510847B2", "about": "“Kidney-specific urate transporter and gene thereof” (Human Cell Systems, Inc., priority 2001, dated 2009)", "key": {"URAT1 [1]": {"target": "T1, URAT1 (Homo sapiens, UniProt Q96S37)", "T1 sequence (Q96S37 1-553)": "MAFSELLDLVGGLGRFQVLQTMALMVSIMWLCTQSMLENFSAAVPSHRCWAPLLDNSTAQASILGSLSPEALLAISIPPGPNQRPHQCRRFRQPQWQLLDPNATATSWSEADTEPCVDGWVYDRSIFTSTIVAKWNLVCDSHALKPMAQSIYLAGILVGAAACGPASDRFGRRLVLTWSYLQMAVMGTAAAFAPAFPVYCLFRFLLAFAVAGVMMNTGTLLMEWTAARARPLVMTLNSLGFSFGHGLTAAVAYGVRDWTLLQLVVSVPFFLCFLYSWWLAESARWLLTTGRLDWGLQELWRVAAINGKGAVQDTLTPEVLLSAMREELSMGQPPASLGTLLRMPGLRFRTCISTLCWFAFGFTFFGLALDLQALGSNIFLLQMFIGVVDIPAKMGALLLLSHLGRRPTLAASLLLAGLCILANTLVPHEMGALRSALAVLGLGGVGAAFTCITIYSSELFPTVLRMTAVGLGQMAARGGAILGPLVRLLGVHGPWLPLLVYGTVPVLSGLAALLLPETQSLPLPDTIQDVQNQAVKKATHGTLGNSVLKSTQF", "assay": "inhibition of [14C] uric acid uptake by oocytes injected with URAT1 cRNA", "description": "In order to further study substrate selectivity of URAT1, in the uptake experiment system of [^14C] uric acid by the oocytes injected with URAT1 cRNA, various substances were added to the system and their effects were examined (inhibitory experiments). […] The uptake of 50 μM [^14C] uric acid was measured under the condition at pH 7.4 in the presence and absence of various compounds (unlabeled) at the concentrations shown in FIG. 8."}, "URAT1 [2]": {"target": "T1, URAT1", "assay": "uric acid uptake by URAT1 oocytes after preincubation with or pre-injection of organic acids (exchange substrate study)", "type": "cell-based", "set-up": "expressed in transfected cells; host or cells: Xenopus laevis oocytes (\"platanna\") injected with URAT1 cRNA", "details": "for uptake of radiolabeled uric acid after precedent injection of organic acid into oocytes: 100 nl of 100 mM injected, compared to water injected, FIG. 7; for uptake of uric acid after preincubation of oocytes with organic acid: preincubation 1 mM, oocytes injected with URAT1 cRNA, FIG. 6", "experimental": "Therefore, 100 nl of 100 mM non-radiolabeled L-lactic acid was precedently injected in the oocytes, and then the uptake of the radiolabeled uric acid was observed (FIG. 7)."}, "URAT1 [3]": {"target": "T1, URAT1", "assay": "uptake of radiolabeled substrates by oocytes injected with URAT1 cRNA", "type": "cell-based", "set-up": "expressed in transfected cells; host or cells: Xenopus laevis oocytes (\"platanna\") injected with URAT1 cRNA", "details": "oocytes of platanna injected with URAT1 cRNA", "experimental": "Michaelis-Menten dynamic experiment in urate transport by URAT1 was carried out. Concentration dependency of uric acid in the transport by URAT1 was studied by examining change of uptake amounts of uric acid at various concentrations by URAT1. The uptake experiment of the radiolabeled uric acid was carried out using oocytes injected with URAT1 cRNA according to the method described above."}, "[4]": {"substrate": "O=c1[nH]c(=O)c2[nH]c(=O)[nH]c2[nH]1", "assay": "uptake of radiolabeled substrates by oocytes injected with URAT1 cRNA", "type": "cell-based, human", "details": "other: oocytes injected with URAT1 cRNA, FIG. 3"}, "[5]": {"details": "50 μM [14C] uric acid, pH 7.4, unlabeled compound at concentrations shown in FIG. 8"}}}
{"molecule": "C[C@@H](O)C(=O)O", "note": "[D-lactic acid]", "values": [{"measurement": "inhibition of transport/uptake of [14C] uric acid by URAT1", "setting": "URAT1 [1]; [5]", "result": "significantly inhibited"}]}
{"molecule": "C[C@H](O)C(=O)O", "note": "[L-lactic acid]", "values": [{"measurement": "inhibition of transport/uptake of [14C] uric acid by URAT1", "setting": "URAT1 [1]; [5]", "result": "significantly inhibited"}, {"measurement": "uptake of radiolabeled uric acid after precedent injection of organic acid into oocytes", "setting": "URAT1 [2]", "result": "significantly high uptake"}]}
{"molecule": "CCCCc1nc(Cl)c(CO)n1Cc1ccc(-c2ccccc2-c2nn[nH]n2)cc1", "note": "[Losartan]", "values": [{"measurement": "IC50", "setting": "URAT1 [1]", "result": "~20", "unit": "µM"}, {"measurement": "inhibition of transport/uptake of [14C] uric acid by URAT1", "setting": "URAT1 [1]; [5]", "result": "significantly inhibited"}]}
{"molecule": "Nc1ccc(C(=O)NCC(=O)O)cc1", "note": "[PAH, para-amino hippuric acid]", "values": [{"measurement": "inhibition of transport/uptake of [14C] uric acid by URAT1", "setting": "URAT1 [1]; [5]", "result": "did not show any inhibitory action"}, {"measurement": "uptake of 14C-labeled substrate by oocytes expressing URAT1", "setting": "URAT1 [3]", "result": "No uptake"}, {"measurement": "uptake of radiolabeled uric acid after precedent injection of organic acid into oocytes", "setting": "URAT1 [2]", "result": "no change"}, {"measurement": "uptake of uric acid after preincubation of oocytes with organic acid", "setting": "URAT1 [2]", "result": "not facilitated"}]}
{"molecule": "CC[N+](CC)(CC)CC", "note": "[TEA, tetraethylammonium]", "values": [{"measurement": "inhibition of transport/uptake of [14C] uric acid by URAT1", "setting": "URAT1 [1]; [5]", "result": "did not show any inhibitory action"}, {"measurement": "uptake of 14C-labeled substrate by oocytes expressing URAT1", "setting": "URAT1 [3]", "result": "No uptake"}]}
{"molecule": "CCc1oc2ccccc2c1C(=O)c1cc(Br)c(O)c(Br)c1", "note": "[benz-bromarone]", "values": [{"measurement": "inhibition of transport/uptake of [14C] uric acid by URAT1", "setting": "URAT1 [1]; pH 7.4", "result": "significantly inhibited"}]}
{"molecule": "CC(O)C(=O)O", "note": "(stereo not shown) [lactic acid]", "values": [{"measurement": "uptake of uric acid after preincubation of oocytes with organic acid", "setting": "URAT1 [2]", "result": "not facilitated"}]}
{"molecule": "O=C(O)c1cccnc1", "note": "[nicotinic acid, 3-pyridine carboxylic acid]", "values": [{"measurement": "inhibition of transport/uptake of [14C] uric acid by URAT1", "setting": "URAT1 [1]; [5]", "result": "significantly inhibited"}, {"measurement": "uptake of uric acid after preincubation of oocytes with organic acid", "setting": "URAT1 [2]", "result": "significantly increased"}]}
{"molecule": "CCCN(CCC)S(=O)(=O)c1ccc(C(=O)O)cc1", "note": "[probenecid]", "values": [{"measurement": "inhibition of transport/uptake of [14C] uric acid by URAT1", "setting": "URAT1 [1]; [5]", "result": "significantly inhibited"}]}
{"molecule": "O=C(O)c1cnccn1", "note": "[pyrazine carboxylic acid]", "values": [{"measurement": "inhibition of transport/uptake of [14C] uric acid by URAT1", "setting": "URAT1 [1]; [5]", "result": "significantly inhibited"}, {"measurement": "uptake of uric acid after preincubation of oocytes with organic acid", "setting": "URAT1 [2]", "result": "significantly increased"}]}
{"molecule": "O=C1C(CC[S+]([O-])c2ccccc2)C(=O)N(c2ccccc2)N1c1ccccc1", "note": "(stereo not shown) [sulfinpyrazon]", "values": [{"measurement": "inhibition of transport/uptake of [14C] uric acid by URAT1", "setting": "URAT1 [1]; [5]", "result": "significantly inhibited"}]}
{"molecule": "O=c1[nH]c(=O)c2[nH]c(=O)[nH]c2[nH]1", "note": "[uric acid]", "values": [{"measurement": "uptake of 14C-labeled substrate by oocytes expressing URAT1", "setting": "URAT1 [3]", "result": "showed uptake"}]}
{"molecule": "Pyrazine dicarboxylic acid", "values": [{"measurement": "inhibition of transport/uptake of [14C] uric acid by URAT1", "setting": "URAT1 [1]; [5]", "result": "slightly weak inhibitory effect"}]}
{"molecule": "URAT1 (Homo sapiens) (protein, expressed in transfected cells; host or cells: Xenopus laevis oocytes (\"platanna\") injected with URAT1 cRNA) MAFSELLDLVGGLGRFQVLQTMALMVSIMWLCTQSMLENFSAAVPSHRCWAPLLDNSTAQASILGSLSPEALLAISIPPGPNQRPHQCRRFRQPQWQLLDPNATATSWSEADTEPCVDGWVYDRSIFTSTIVAKWNLVCDSHALKPMAQSIYLAGILVGAAACGPASDRFGRRLVLTWSYLQMAVMGTAAAFAPAFPVYCLFRFLLAFAVAGVMMNTGTLLMEWTAARARPLVMTLNSLGFSFGHGLTAAVAYGVRDWTLLQLVVSVPFFLCFLYSWWLAESARWLLTTGRLDWGLQELWRVAAINGKGAVQDTLTPEVLLSAMREELSMGQPPASLGTLLRMPGLRFRTCISTLCWFAFGFTFFGLALDLQALGSNIFLLQMFIGVVDIPAKMGALLLLSHLGRRPTLAASLLLAGLCILANTLVPHEMGALRSALAVLGLGGVGAAFTCITIYSSELFPTVLRMTAVGLGQMAARGGAILGPLVRLLGVHGPWLPLLVYGTVPVLSGLAALLLPETQSLPLPDTIQDVQNQAVKKATHGTLGNSVLKSTQF", "values": [{"measurement": "Km", "setting": "[4]", "result": "372 ± 25", "unit": "µM"}]}
